{
  "source": "patent US20100285959A1",
  "about": "“HERBICIDAL MIXTURES” (priority 2006, published 2010)",
  "key": {"winter barley (HORVW) [1]": {"tested_on": "winter barley (HORVW)", "test": "Test 22 growth chamber, postemergence", "assay_type": "in vivo, Hordeum vulgare", "details": "25 DAA; 2,4-D or MCPA alone 250 g a.i./ha", "procedure": "(§1) A test was conducted to evaluate the effects on winter barley (HORVW, Hordeum vulgare L.), winter wheat (TRZAW, Triticum aestivum L.), and several weed species of mixtures of Compound 2 with the commercial herbicides (2,4-dichlorophenoxy)acetic acid (2,4-D) and (4-chloro-2-methylphenoxy)acetic acid (MCPA), auxin mimics. […] Plants were treated postemergence at the 2-4 leaf growth stage, except KCHSC, SASKR and STEME which were in the 4-8 leaf growth stage. Each treatment was replicated one time. […] Plants were watered as needed. […] Results are from single replicates."}, "galium (GALAP) [2]": {"tested_on": "galium (GALAP)", "test": "Test 22 growth chamber, postemergence", "assay_type": "in vivo, Galium aparine", "details": "25 DAA; 2,4-D or MCPA alone 250 g a.i./ha", "procedure": "as §1"}, "wild chamomile (MATCH)": {"tested_on": "wild chamomile (MATCH)", "test": "Test 23 growth chamber, postemergence", "assay_type": "in vivo, Matricaria chamomilla", "details": "21 DAA; 2,4-D or MCPA alone 250 g a.i./ha", "procedure": "as §1, with “stage,” for “stage, except KCHSC, SASKR”, “each” for “STEME which were in the 4-8 leaf growth stage. Each”, “three times.” for “one time.”, “means of the three” for “from single”"}, "common chickweed (STEME) [3]": {"tested_on": "common chickweed (STEME)", "test": "Test 23 growth chamber, postemergence", "assay_type": "in vivo, Stellaria media", "details": "21 DAA; 2,4-D or MCPA alone 250 g a.i./ha", "procedure": "as §1, with “stage,” for “stage, except KCHSC, SASKR”, “each” for “STEME which were in the 4-8 leaf growth stage. Each”, “three times.” for “one time.”, “means of the three” for “from single”"}, "wild mustard (SINAR) [4]": {"tested_on": "wild mustard (SINAR)", "test": "Test 23 growth chamber, postemergence", "assay_type": "in vivo, Sinapis arvensis", "details": "21 DAA; 2,4-D or MCPA alone 250 g a.i./ha", "procedure": "as §1, with “stage,” for “stage, except KCHSC, SASKR”, “each” for “STEME which were in the 4-8 leaf growth stage. Each”, “three times.” for “one time.”, “means of the three” for “from single”"}, "wild mustard (SINAR) [5]": {"tested_on": "wild mustard (SINAR)", "test": "Test 22 growth chamber, postemergence", "assay_type": "in vivo, Sinapis arvensis", "details": "25 DAA; 2,4-D or MCPA alone 250 g a.i./ha", "procedure": "as §1"}, "redroot pigweed (AMARE) [6]": {"tested_on": "redroot pigweed (AMARE)", "test": "Test 22 growth chamber, postemergence", "assay_type": "in vivo, Amaranthus retroflexus", "details": "25 DAA; 2,4-D or MCPA alone 250 g a.i./ha", "procedure": "as §1"}, "winter barley (HORVW) [7]": {"tested_on": "winter barley (HORVW)", "test": "Test 23 growth chamber, postemergence", "assay_type": "in vivo, Hordeum vulgare", "details": "21 DAA; 2,4-D or MCPA alone 250 g a.i./ha", "procedure": "as §1, with “stage,” for “stage, except KCHSC, SASKR”, “each” for “STEME which were in the 4-8 leaf growth stage. Each”, “three times.” for “one time.”, “means of the three” for “from single”"}, "Russian thistle (SASKR) [8]": {"tested_on": "Russian thistle (SASKR)", "test": "Test 22 growth chamber, postemergence", "assay_type": "in vivo, Salsola kali", "details": "25 DAA; 2,4-D or MCPA alone 250 g a.i./ha", "procedure": "as §1"}, "winter wheat (TRZAW) [9]": {"tested_on": "winter wheat (TRZAW)", "test": "Test 22 growth chamber, postemergence", "assay_type": "in vivo, Triticum aestivum", "details": "25 DAA; 2,4-D or MCPA alone 250 g a.i./ha", "procedure": "as §1"}, "field poppy (PAPRH)": {"tested_on": "field poppy (PAPRH)", "test": "Test 23 growth chamber, postemergence", "assay_type": "in vivo, Papaver rhoeas", "details": "21 DAA; 2,4-D or MCPA alone 250 g a.i./ha", "procedure": "as §1, with “stage,” for “stage, except KCHSC, SASKR”, “each” for “STEME which were in the 4-8 leaf growth stage. Each”, “three times.” for “one time.”, “means of the three” for “from single”"}, "[10]": {"tested_on": "common lambsquarters (CHEAL)", "test": "Test 23 growth chamber, postemergence", "assay_type": "in vivo, Chenopodium album", "details": "21 DAA; 2,4-D or MCPA alone 250 g a.i./ha", "procedure": "as §1, with “stage,” for “stage, except KCHSC, SASKR”, “each” for “STEME which were in the 4-8 leaf growth stage. Each”, “three times.” for “one time.”, “means of the three” for “from single”"}, "winter wheat (TRZAW) [11]": {"tested_on": "winter wheat (TRZAW)", "test": "Test 23 growth chamber, postemergence", "assay_type": "in vivo, Triticum aestivum", "details": "21 DAA; 2,4-D or MCPA alone 250 g a.i./ha", "procedure": "as §1, with “stage,” for “stage, except KCHSC, SASKR”, “each” for “STEME which were in the 4-8 leaf growth stage. Each”, “three times.” for “one time.”, “means of the three” for “from single”"}, "winter barley (HORVW) [12]": {"tested_on": "winter barley (HORVW)", "test": "Test 20 growth chamber, postemergence", "assay_type": "in vivo, Hordeum vulgare", "details": "25 DAA; 2,4-D or MCPA alone 250 g a.i./ha", "procedure": "(§2) A test was conducted to evaluate the effects on winter barley (HORVW, Hordeum vulgare L.) and winter wheat (TRZAW, Triticum aestivum L.) of mixtures of Compound 2 with the commercial herbicides (2,4-dichlorophenoxy)acetic acid (2,4-D) and (4-chloro-2-methylphenoxy)acetic acid (MCPA), auxin mimics. […] Plants were treated postemergence at the 2-leaf growth stage, and each treatment was replicated a total of four times (three times in the loam/sand blend and one time in RediEarth). […] Plants were watered as needed. […] Results are the means of the four replicates."}, "[13]": {"tested_on": "common lambsquarters (CHEAL)", "test": "Test 22 growth chamber, postemergence", "assay_type": "in vivo, Chenopodium album", "details": "25 DAA; 2,4-D or MCPA alone 250 g a.i./ha", "procedure": "as §1"}, "field violet (VIOAR)": {"tested_on": "field violet (VIOAR)", "test": "Test 23 growth chamber, postemergence", "assay_type": "in vivo, Viola arvensis", "details": "21 DAA; 2,4-D or MCPA alone 250 g a.i./ha", "procedure": "as §1, with “stage,” for “stage, except KCHSC, SASKR”, “each” for “STEME which were in the 4-8 leaf growth stage. Each”, “three times.” for “one time.”, “means of the three” for “from single”"}, "galium (GALAP) [14]": {"tested_on": "galium (GALAP)", "test": "Test 23 growth chamber, postemergence", "assay_type": "in vivo, Galium aparine", "details": "21 DAA; 2,4-D or MCPA alone 250 g a.i./ha", "procedure": "as §1, with “stage,” for “stage, except KCHSC, SASKR”, “each” for “STEME which were in the 4-8 leaf growth stage. Each”, “three times.” for “one time.”, “means of the three” for “from single”"}, "wild buckwheat (POLCO) [15]": {"tested_on": "wild buckwheat (POLCO)", "test": "Test 23 growth chamber, postemergence", "assay_type": "in vivo, Polygonum convolvulus", "details": "21 DAA; 2,4-D or MCPA alone 250 g a.i./ha", "procedure": "as §1, with “stage,” for “stage, except KCHSC, SASKR”, “each” for “STEME which were in the 4-8 leaf growth stage. Each”, “three times.” for “one time.”, “means of the three” for “from single”"}, "common chickweed (STEME) [16]": {"tested_on": "common chickweed (STEME)", "test": "Test 22 growth chamber, postemergence", "assay_type": "in vivo, Stellaria media", "details": "25 DAA; 2,4-D or MCPA alone 250 g a.i./ha", "procedure": "as §1"}, "kochia (KCHSC) [17]": {"tested_on": "kochia (KCHSC)", "test": "Test 23 growth chamber, postemergence", "assay_type": "in vivo, Kochia scoparia", "details": "21 DAA; 2,4-D or MCPA alone 250 g a.i./ha", "procedure": "as §1, with “stage,” for “stage, except KCHSC, SASKR”, “each” for “STEME which were in the 4-8 leaf growth stage. Each”, “three times.” for “one time.”, “means of the three” for “from single”"}, "kochia (KCHSC) [18]": {"tested_on": "kochia (KCHSC)", "test": "Test 22 growth chamber, postemergence", "assay_type": "in vivo, Kochia scoparia", "details": "25 DAA; 2,4-D or MCPA alone 250 g a.i./ha", "procedure": "as §1"}, "redroot pigweed (AMARE) [19]": {"tested_on": "redroot pigweed (AMARE)", "test": "Test 23 growth chamber, postemergence", "assay_type": "in vivo, Amaranthus retroflexus", "details": "21 DAA; 2,4-D or MCPA alone 250 g a.i./ha", "procedure": "as §1, with “stage,” for “stage, except KCHSC, SASKR”, “each” for “STEME which were in the 4-8 leaf growth stage. Each”, “three times.” for “one time.”, “means of the three” for “from single”"}, "winter wheat (TRZAW) [20]": {"tested_on": "winter wheat (TRZAW)", "test": "Test 20 growth chamber, postemergence", "assay_type": "in vivo, Triticum aestivum", "details": "25 DAA; 2,4-D or MCPA alone 250 g a.i./ha", "procedure": "as §2"}, "Russian thistle (SASKR) [21]": {"tested_on": "Russian thistle (SASKR)", "test": "Test 23 growth chamber, postemergence", "assay_type": "in vivo, Salsola kali", "details": "21 DAA; 2,4-D or MCPA alone 250 g a.i./ha", "procedure": "as §1, with “stage,” for “stage, except KCHSC, SASKR”, “each” for “STEME which were in the 4-8 leaf growth stage. Each”, “three times.” for “one time.”, “means of the three” for “from single”"}, "wild buckwheat (POLCO) [22]": {"tested_on": "wild buckwheat (POLCO)", "test": "Test 22 growth chamber, postemergence", "assay_type": "in vivo, Polygonum convolvulus", "details": "25 DAA; 2,4-D or MCPA alone 250 g a.i./ha", "procedure": "as §1"}},
  "data": [
    {"smiles": "Cc1cc(Cl)ccc1OCC(=O)O", "note": "[MCPA]", "values": [
      {"measurement": "Postemergence HORVW Obs", "setting": "winter barley (HORVW) [1]", "value": 25},
      {"measurement": "Postemergence GALAP Obs", "setting": "galium (GALAP) [2]", "value": 50},
      {"measurement": "Postemergence MATCH Obs", "setting": "wild chamomile (MATCH)", "value": 53},
      {"measurement": "Postemergence STEME Obs", "setting": "common chickweed (STEME) [3]", "value": 55},
      {"measurement": "Postemergence SINAR Obs", "setting": "wild mustard (SINAR) [4]", "value": 65},
      {"measurement": "Postemergence SINAR Obs", "setting": "wild mustard (SINAR) [5]", "value": 75},
      {"measurement": "Postemergence AMARE Obs", "setting": "redroot pigweed (AMARE) [6]", "value": 65},
      {"measurement": "Postemergence HORVW Obs", "setting": "winter barley (HORVW) [7]", "value": 35},
      {"measurement": "Postemergence SASKR Obs", "setting": "Russian thistle (SASKR) [8]", "value": 45},
      {"measurement": "Postemergence TRZAW Obs", "setting": "winter wheat (TRZAW) [9]", "value": 10},
      {"measurement": "Postemergence PAPRH Obs", "setting": "field poppy (PAPRH)", "value": 57},
      {"measurement": "Postemergence CHEAL Obs", "setting": "[10]", "value": 70},
      {"measurement": "Postemergence TRZAW Obs", "setting": "winter wheat (TRZAW) [11]", "value": 32},
      {"measurement": "Postemergence HORVW Obs", "setting": "winter barley (HORVW) [12]", "value": 33},
      {"measurement": "Postemergence CHEAL Obs", "setting": "[13]", "value": 65},
      {"measurement": "Postemergence VIOAR Obs", "setting": "field violet (VIOAR)", "value": 60},
      {"measurement": "Postemergence GALAP Obs", "setting": "galium (GALAP) [14]", "value": 43},
      {"measurement": "Postemergence POLCO Obs", "setting": "wild buckwheat (POLCO) [15]", "value": 52},
      {"measurement": "Postemergence STEME Obs", "setting": "common chickweed (STEME) [16]", "value": 50},
      {"measurement": "Postemergence KCHSC Obs", "setting": "kochia (KCHSC) [17]", "value": 67},
      {"measurement": "Postemergence KCHSC Obs", "setting": "kochia (KCHSC) [18]", "value": 55},
      {"measurement": "Postemergence AMARE Obs", "setting": "redroot pigweed (AMARE) [19]", "value": 63},
      {"measurement": "Postemergence TRZAW Obs", "setting": "winter wheat (TRZAW) [20]", "value": 18},
      {"measurement": "Postemergence SASKR Obs", "setting": "Russian thistle (SASKR) [21]", "value": 43},
      {"measurement": "Postemergence POLCO Obs", "setting": "wild buckwheat (POLCO) [22]", "value": 40}
    ]}
  ]
}
